# Assay results as given in ChEMBL document CHEMBL1154899, “Synthesis and biological evaluation of caffeic acid 3,4-dihydroxyphenethyl ester” (J Nat Prod, 2010).
# Tests used:
# Assay type in all cases: functional
# [1] = tested on: SK-OV-3; experiment: Antiproliferative activity against human SKOV3 cells assessed as cell growth at 50 uM by SRB assay; conditions: read-out: Activity
# [2] = tested on: NCI/ADR-RES; experiment: Antiproliferative activity against human NCI/ADR-RES cells assessed as cell growth at 0.5 uM by SRB assay; conditions: read-out: Activity
# [3] = tested on: OVCAR-5; experiment: Antiproliferative activity against human OVCAR5 cells at 500 uM by SRB assay
# [4] = tested on: MCF7; experiment: Antiproliferative activity against human MCF7 cells assessed as cell growth at 500 uM by SRB assay; conditions: read-out: Activity
# [5] = tested on: U-251; experiment: Antiproliferative activity against human U251 cells assessed as cell growth at 5 uM by SRB assay; conditions: read-out: Activity
# [6] = tested on: DU-145; experiment: Antiproliferative activity against human DU145 cells assessed as cell growth at 500 uM by SRB assay; conditions: read-out: Activity
# [7] = tested on: OVCAR-8; experiment: Antiproliferative activity against human OVCAR8 cells assessed as cell growth at 500 uM by SRB assay; conditions: read-out: Activity
# [8] = tested on: Malme-3M; experiment: Antiproliferative activity against human MALME-3M cells assessed as cell growth at 500 uM by SRB assay; conditions: read-out: Activity
# [9] = tested on: SK-MEL-28; experiment: Antiproliferative activity against human SK-MEL-28 cells assessed as cell growth at 500 uM by SRB assay; conditions: read-out: Activity
# [10] = tested on: U-251; experiment: Antiproliferative activity against human U251 cells assessed as cell growth at 500 uM by SRB assay; conditions: read-out: Activity
# [11] = tested on: CAKI-1; experiment: Antiproliferative activity against human Caki1 cells assessed as cell growth at 5 uM by SRB assay; conditions: read-out: Activity
# [12] = tested on: UO-31; experiment: Antiproliferative activity against human UO31 cells assessed as cell growth at 5 uM by SRB assay; conditions: read-out: Activity
# [13] = tested on: HCC 2998; experiment: Antiproliferative activity against human HCC2998 cells assessed as cell growth at 5 uM by SRB assay; conditions: read-out: Activity
# [14] = tested on: SW-620; experiment: Antiproliferative activity against human SW620 cells assessed as cell growth at 5 uM by SRB assay; conditions: read-out: Activity
# [15] = tested on: OVCAR-4; experiment: Antiproliferative activity against human OVCAR4 cells assessed as cell growth at 500 uM by SRB assay; conditions: read-out: Activity
# [16] = tested on: SR; experiment: Antiproliferative activity against human SR cells assessed as cell growth at 500 uM by SRB assay; conditions: read-out: Activity
# [17] = tested on: SK-OV-3; experiment: Antiproliferative activity against human SKOV3 cells by SRB assay
# [18] = tested on: DU-145; experiment: Antiproliferative activity against human DU145 cells assessed as cell growth at 5 uM by SRB assay; conditions: read-out: Activity
# [19] = tested on: UO-31; experiment: Antiproliferative activity against human UO31 cells by SRB assay
# [20] = tested on: SK-OV-3; experiment: Antiproliferative activity against human SKOV3 cells assessed as cell growth at 0.5 uM by SRB assay; conditions: read-out: Activity
# [21] = tested on: BT-549; experiment: Antiproliferative activity against human BT549 cells assessed as cell growth at 0.5 uM by SRB assay; conditions: read-out: Activity
# [22] = tested on: HCC 2998; experiment: Antiproliferative activity against human HCC2998 cells by SRB assay
# [23] = tested on: SF-295; experiment: Antiproliferative activity against human SF295 cells assessed as cell growth at 50 uM by SRB assay; conditions: read-out: Activity
# [24] = tested on: HCT-15; experiment: Antiproliferative activity against human HCT15 cells assessed as cell growth at 500 uM by SRB assay; conditions: read-out: Activity
# [25] = Antiproliferative activity against human Hs 578T cells assessed as cell growth at 50 uM by SRB assay; conditions: read-out: Activity
# [26] = tested on: HOP-92; experiment: Antiproliferative activity against human HOP92 cells assessed as cell growth at 500 uM by SRB assay; conditions: read-out: Activity
# [27] = tested on: NCI-H460; experiment: Antiproliferative activity against human NCI-H460 cells by SRB assay
# [28] = tested on: HOP-62; experiment: Antiproliferative activity against human HOP62 cells assessed as cell growth at […] by SRB assay; conditions: read-out: Activity
# [29] = tested on: BT-549; experiment: Antiproliferative activity against human BT549 cells assessed as cell growth at 500 uM by SRB assay; conditions: read-out: Activity
# [30] = tested on: TK-10; experiment: Antiproliferative activity against human TK10 cells assessed as cell growth at 50 uM by SRB assay; conditions: read-out: Activity
# [31] = tested on: UO-31; experiment: Antiproliferative activity against human UO31 cells assessed as cell growth at 50 uM by SRB assay; conditions: read-out: Activity
# [32] = tested on: BT-549; experiment: Antiproliferative activity against human BT549 cells assessed as cell growth at 5 uM by SRB assay; conditions: read-out: Activity
# [33] = tested on: A498; experiment: Antiproliferative activity against human A498 cells assessed as cell growth at 5 uM by SRB assay; conditions: read-out: Activity
# [34] = tested on: SK-MEL-5; experiment: Antiproliferative activity against human SK-MEL-5 cells assessed as cell growth at 50 uM by SRB assay; conditions: read-out: Activity
# [35] = tested on: SK-MEL-2; experiment: Antiproliferative activity against human SK-MEL-2 cells by SRB assay
# [36] = tested on: OVCAR-5; experiment: Antiproliferative activity against human OVCAR5 cells at 0.5 uM by SRB assay
# [37] = tested on: CCRF-CEM; experiment: Antiproliferative activity against human CCRF-CEM cells assessed as cell growth at 50 uM by SRB assay; conditions: read-out: Activity
# [38] = tested on: NCI-H322M; experiment: Antiproliferative activity against human NCI-H322M cells assessed as cell growth at 0.5 uM by SRB assay; conditions: read-out: Activity
# [39] = tested on: MDA-MB-435; experiment: Antiproliferative activity against human MDA-MB-435 cells assessed as cell growth at 500 uM by SRB assay; conditions: read-out: Activity
# [40] = tested on: SNB-75; experiment: Antiproliferative activity against human SNB75 cells assessed as cell growth at 50 uM by SRB assay; conditions: read-out: Activity
# [41] = tested on: K562; experiment: Antiproliferative activity against human K562 cells assessed as cell growth at 50 uM by SRB assay; conditions: read-out: Activity
# [42] = tested on: OVCAR-3; experiment: Antiproliferative activity against human OVCAR-3 cells assessed as cell growth at 0.5 uM by SRB assay; conditions: read-out: Activity
# [43] = tested on: 786-0; experiment: Antiproliferative activity against human 786-0 cells assessed as cell growth at 5 uM by SRB assay; conditions: read-out: Activity
# [44] = tested on: RXF 393; experiment: Antiproliferative activity against human RXF393 cells assessed as cell growth at 0.5 uM by SRB assay; conditions: read-out: Activity
# [45] = tested on: SK-MEL-5; experiment: Antiproliferative activity against human SK-MEL-5 cells assessed as cell growth at 0.5 uM by SRB assay; conditions: read-out: Activity
# [46] = read-out: LC50 (the source's name)
# [47] = read-out: pLC50 (the source's name) (converted)
compound,measurement,setting,value
O=C(/C=C/c1ccc(O)c(O)c1)OCCc1ccc(O)c(O)c1,growth at 50 µM,[1],88%
same,growth at 0.5 µM,[2],97%
same,Activity,[3],102%
same,growth at 500 µM,[4],45%
same,growth at 5 µM,[5],97%
same,growth at 500 µM,[6],80%
same,growth at 500 µM,[7],64%
same,growth at 500 µM,[8],74%
same,growth at 500 µM,[9],55%
same,growth at 500 µM,[10],65%
same,growth at 5 µM,[11],83%
same,growth at 5 µM,[12],93%
same,growth at 5 µM,[13],107%
same,growth at 5 µM,[14],95%
same,growth at 500 µM,[15],58%
same,growth at 500 µM,[16],20%
same,GI50,[17]; read-out: GI50,13.7 µM
same,CC50,[17]; [46],> 50 µM
same,TGI,[17]; read-out: TGI,> 50 µM
same,GI50,[17]; read-out: pGI50 (converted),13.2 µM
same,CC50,[17]; [47],> 50.1 µM
same,TGI,[17]; read-out: pTGI,> 50.1 µM
same,growth at 5 µM,[18],101%
same,GI50,[19]; read-out: GI50,1.75 µM
same,CC50,[19]; [46],> 50 µM
same,TGI,[19]; read-out: TGI,21.1 µM
same,GI50,[19]; read-out: pGI50 (converted),1.66 µM
same,CC50,[19]; [47],> 50.1 µM
same,TGI,[19]; read-out: pTGI (converted),20.9 µM
same,growth at 0.5 µM,[20],99%
same,growth at 0.5 µM,[21],94%
same,GI50,[22]; read-out: GI50,14.6 µM
same,CC50,[22]; [46],> 50 µM
same,TGI,[22]; read-out: TGI,> 50 µM
same,GI50,[22]; read-out: pGI50 (converted),14.5 µM
same,CC50,[22]; [47],> 50.1 µM
same,TGI,[22]; read-out: pTGI,> 50.1 µM
same,growth at 50 µM,[23],87%
same,growth at 500 µM,[24],38%
same,growth at 50 µM,[25],80%
same,growth at 500 µM,[26],29%
same,GI50,[27],14.8 µM
same,CC50,[27]; [46],> 50 µM
same,TGI,[27]; read-out: TGI,> 50 µM
same,CC50,[27]; [47],> 50.1 µM
same,TGI,[27]; read-out: pTGI,> 50.1 µM
same,growth,[28],38%
same,growth at 500 µM,[29],60%
same,growth at 50 µM,[30],94%
same,growth at 50 µM,[31],82%
same,growth at 5 µM,[32],100%
same,growth at 5 µM,[33],81%
same,growth at 50 µM,[34],102%
same,GI50,[35]; read-out: GI50,3.02 µM
same,CC50,[35]; [46],> 50 µM
same,TGI,[35]; read-out: TGI,23.7 µM
same,GI50,[35]; read-out: pGI50 (converted),3.02 µM
same,CC50,[35]; [47],> 50.1 µM
same,TGI,[35]; read-out: pTGI (converted),23.4 µM
same,Activity,[36],94%
same,growth at 50 µM,[37],60%
same,growth at 0.5 µM,[38],90%
same,growth at 500 µM,[39],48%
same,growth at 50 µM,[40],72%
same,growth at 50 µM,[41],90%
same,growth at 0.5 µM,[42],104%
same,growth at 5 µM,[43],98%
same,growth at 0.5 µM,[44],88%
same,growth at 0.5 µM,[45],97%
